Reference: US12583884B2, “3beta-(benzyloxy)-17alpha-methyl-pregn-5-en-20-one for use in the treatment of cognitive disorders” (AELIS FARMA, priority 2018, dated 2026)
Like-named read-outs stand apart in the source and are kept apart here.

Experiments:
Serotonin 5-HT1B = biological target: T1, Serotonin 5-HT1B (Rattus norvegicus, UniProt P28564); assay: CEREP binding profile: 5-HT1B
T1 construct: CEREP (contract panel)
Source text: (§1) The CEREP High-throughput profile consists of a broad collection of 80 transmembrane and soluble receptors, ion channels and G-Protein coupled receptors.

Neurotensin NTS1 (NT1) = Neurotensin NTS1 (NT1) (Homo sapiens, UniProt P30989); assay: CEREP binding profile: NTS1
Source text: as §1

[1] = biological target: T2, Steroid nuclear receptors PR (Homo sapiens, UniProt P06401); assay: Binding: PR
T2 construct: CEREP
T2 sequence (P06401 1-933): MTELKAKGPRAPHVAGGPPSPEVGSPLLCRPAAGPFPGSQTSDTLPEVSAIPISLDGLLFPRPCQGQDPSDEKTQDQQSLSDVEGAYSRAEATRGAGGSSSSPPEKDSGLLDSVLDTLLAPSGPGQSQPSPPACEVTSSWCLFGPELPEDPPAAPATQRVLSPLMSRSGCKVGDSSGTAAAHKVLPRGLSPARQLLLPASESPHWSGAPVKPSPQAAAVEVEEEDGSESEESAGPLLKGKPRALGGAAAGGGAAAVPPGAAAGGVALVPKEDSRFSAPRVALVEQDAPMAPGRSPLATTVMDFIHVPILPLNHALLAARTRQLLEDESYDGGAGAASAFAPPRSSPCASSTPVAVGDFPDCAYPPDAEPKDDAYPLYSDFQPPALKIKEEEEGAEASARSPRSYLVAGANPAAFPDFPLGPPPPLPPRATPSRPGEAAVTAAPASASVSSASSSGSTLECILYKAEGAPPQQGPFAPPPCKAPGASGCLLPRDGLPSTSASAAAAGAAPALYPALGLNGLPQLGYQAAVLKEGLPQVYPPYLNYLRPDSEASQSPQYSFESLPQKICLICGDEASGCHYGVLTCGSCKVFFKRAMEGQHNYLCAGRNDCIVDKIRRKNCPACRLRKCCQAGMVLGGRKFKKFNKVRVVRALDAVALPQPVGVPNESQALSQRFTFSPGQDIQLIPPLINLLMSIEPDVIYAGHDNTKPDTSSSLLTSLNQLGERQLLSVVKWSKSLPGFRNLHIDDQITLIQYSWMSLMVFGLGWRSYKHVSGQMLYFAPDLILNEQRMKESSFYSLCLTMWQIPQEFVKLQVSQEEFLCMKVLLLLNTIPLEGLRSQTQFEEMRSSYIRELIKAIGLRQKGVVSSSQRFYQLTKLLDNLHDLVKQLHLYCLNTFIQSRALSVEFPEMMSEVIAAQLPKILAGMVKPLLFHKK
Source text: as §1

Muscarinic M2 = Muscarinic M2 (Homo sapiens, UniProt P08172); assay: CEREP binding profile: M2
Source text: as §1

GABA = assay: CEREP binding profile: GABA; conditions: 10 μM
Source text: as §1

Muscarinic M1 = Muscarinic M1 (Homo sapiens, UniProt P11229); assay: CEREP binding profile: M1
Source text: as §1

Bradykinin B2 = biological target: T3, Bradykinin B2 (Homo sapiens, UniProt P30411); assay: CEREP binding profile: B2
T3 construct: CEREP
Source text: as §1

Neurokinin NK3 = Neurokinin NK3 (Homo sapiens, UniProt P29371); assay: CEREP binding profile: NK3
Source text: as §1

Dopamine D5 = biological target: T4, Dopamine D5 (Homo sapiens, UniProt P21918); assay: CEREP binding profile: D5
T4 construct: CEREP
Source text: as §1

Vasopressin V1a = biological target: T5, Vasopressin V1a (Homo sapiens, UniProt P37288); assay: CEREP binding profile: V1a
T5 construct: CEREP (contract panel)
Source text: as §1

Neuropetide Y Y2 = Neuropetide Y Y2 (Homo sapiens, UniProt P49146); assay: CEREP binding profile: Y2
Source text: as §1

Growth factors PDGF = assay: CEREP binding profile: PDGF; conditions: 10 μM
Source text: as §1

Purinergic P2Y = assay: CEREP binding profile: P2Y; conditions: 10 μM
Source text: as §1

Histamine H1 = Histamine H1 (Homo sapiens, UniProt P35367); assay: CEREP binding profile: H1
Source text: as §1

Muscarinic M3 = Muscarinic M3 (Homo sapiens, UniProt P20309); assay: CEREP binding profile: M3
Source text: as §1

[2] = biological target: T6, Vasoactive intestinal peptide VPAC1 (VIP1) (Homo sapiens, UniProt P32241); assay: CEREP binding profile: VPAC1
T6 construct: CEREP (contract panel)
Source text: as §1

[3] = biological target: Opioid and opioid-like delta2 (DOP) (Homo sapiens, UniProt P41143); assay: CEREP binding profile: delta2; conditions: 10 μM
Source text: as §1

Endothelin ETA = biological target: T7, Endothelin ETA (Homo sapiens, UniProt P25101); assay: CEREP binding profile: ETA
T7 construct: CEREP
Source text: as §1

Na+ channels Na+-site 2 = assay: CEREP binding profile: Na+-site 2; conditions: 10 μM
Source text: as §1

Serotonin 5-HT2B = biological target: T8, Serotonin 5-HT2B (Homo sapiens, UniProt P41595); assay: CEREP binding profile: 5-HT2B
T8 construct: CEREP (contract panel)
Source text: as §1

Endothelin ETB = biological target: T9, Endothelin ETB (Homo sapiens, UniProt P24530); assay: CEREP binding profile: ETB
T9 construct: CEREP
Source text: as §1

Melanocortin MC4 = Melanocortin MC4 (Homo sapiens, UniProt P32245); assay: CEREP binding profile: MC4
Source text: as §1

Prostanoid EP2 = Prostanoid EP2 (Homo sapiens, UniProt P43116); assay: CEREP binding profile: EP2
Source text: as §1

[4] = biological target: T10, Benzodiazepine BZD (periph) (Rattus norvegicus, UniProt P16257); assay: CEREP binding profile: BZD (periph)
T10 construct: CEREP (contract panel)
Source text: as §1

Adenosine A2A = biological target: T11, Adenosine A2A (Homo sapiens, UniProt P29274); assay: CEREP binding profile: A2A
T11 construct: CEREP
Source text: as §1

Serotonin 5-HT5a = biological target: T12, Serotonin 5-HT5a (Homo sapiens, UniProt P47898); assay: CEREP binding profile: 5-HT5a
T12 construct: CEREP (contract panel)
Source text: as §1

[5] = biological target: T13, Transporters Norepinephrine (Homo sapiens, UniProt P23975); assay: CEREP binding profile: norepinephrine transporter
T13 construct: CEREP (contract panel)
Source text: as §1

Neurokinin NK2 = Neurokinin NK2 (Homo sapiens, UniProt P21452); assay: CEREP binding profile: NK2
Source text: as §1

Dopamine D1 = biological target: T14, Dopamine D1 (Homo sapiens, UniProt P21728); assay: CEREP binding profile: D1
T14 construct: CEREP
Source text: as §1

T5 sequence (P37288 whole entry): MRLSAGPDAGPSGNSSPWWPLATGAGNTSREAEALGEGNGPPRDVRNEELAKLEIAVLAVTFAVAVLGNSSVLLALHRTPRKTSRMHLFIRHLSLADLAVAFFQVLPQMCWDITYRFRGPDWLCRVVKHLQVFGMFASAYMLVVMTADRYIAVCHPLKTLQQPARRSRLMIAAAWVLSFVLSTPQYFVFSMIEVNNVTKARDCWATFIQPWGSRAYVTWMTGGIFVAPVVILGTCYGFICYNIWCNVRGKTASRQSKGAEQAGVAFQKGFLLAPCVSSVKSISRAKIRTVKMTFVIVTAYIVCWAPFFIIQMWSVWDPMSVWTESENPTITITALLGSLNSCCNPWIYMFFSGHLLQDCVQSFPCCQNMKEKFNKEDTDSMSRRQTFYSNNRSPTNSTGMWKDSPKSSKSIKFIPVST
Opioid and opioid-like delta2 (DOP), sequence (P41143 whole entry): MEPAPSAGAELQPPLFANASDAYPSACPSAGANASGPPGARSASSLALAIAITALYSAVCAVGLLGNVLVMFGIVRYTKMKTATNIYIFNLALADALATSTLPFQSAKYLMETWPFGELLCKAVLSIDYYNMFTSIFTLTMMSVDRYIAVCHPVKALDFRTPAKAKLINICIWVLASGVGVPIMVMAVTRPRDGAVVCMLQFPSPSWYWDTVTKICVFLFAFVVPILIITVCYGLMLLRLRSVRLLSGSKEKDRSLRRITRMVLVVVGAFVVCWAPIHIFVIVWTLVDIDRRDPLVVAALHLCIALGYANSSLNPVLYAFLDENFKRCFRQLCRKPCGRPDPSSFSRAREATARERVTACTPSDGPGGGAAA
Neurotensin NTS1 (NT1), sequence (P30989 whole entry): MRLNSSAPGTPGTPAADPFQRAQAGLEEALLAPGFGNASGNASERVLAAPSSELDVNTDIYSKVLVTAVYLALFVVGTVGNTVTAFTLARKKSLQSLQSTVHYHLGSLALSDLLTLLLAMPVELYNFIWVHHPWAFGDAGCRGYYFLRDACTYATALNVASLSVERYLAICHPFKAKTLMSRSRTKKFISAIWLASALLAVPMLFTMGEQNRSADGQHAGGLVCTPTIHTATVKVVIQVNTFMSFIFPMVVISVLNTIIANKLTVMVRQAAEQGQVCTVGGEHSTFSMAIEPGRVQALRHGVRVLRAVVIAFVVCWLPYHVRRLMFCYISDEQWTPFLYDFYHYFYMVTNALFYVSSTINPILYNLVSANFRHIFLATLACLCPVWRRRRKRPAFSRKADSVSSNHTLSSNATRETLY
Prostanoid EP2, sequence (P43116 whole entry): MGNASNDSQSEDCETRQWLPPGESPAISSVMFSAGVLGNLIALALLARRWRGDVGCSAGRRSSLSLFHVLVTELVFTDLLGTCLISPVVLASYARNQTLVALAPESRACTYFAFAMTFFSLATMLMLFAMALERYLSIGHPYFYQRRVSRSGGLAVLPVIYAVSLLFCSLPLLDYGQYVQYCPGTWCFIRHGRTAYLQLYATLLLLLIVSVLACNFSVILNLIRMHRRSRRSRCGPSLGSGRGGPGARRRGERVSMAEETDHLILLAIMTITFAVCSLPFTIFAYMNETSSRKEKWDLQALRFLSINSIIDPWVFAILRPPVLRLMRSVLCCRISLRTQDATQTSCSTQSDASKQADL
Histamine H1, sequence (P35367 whole entry): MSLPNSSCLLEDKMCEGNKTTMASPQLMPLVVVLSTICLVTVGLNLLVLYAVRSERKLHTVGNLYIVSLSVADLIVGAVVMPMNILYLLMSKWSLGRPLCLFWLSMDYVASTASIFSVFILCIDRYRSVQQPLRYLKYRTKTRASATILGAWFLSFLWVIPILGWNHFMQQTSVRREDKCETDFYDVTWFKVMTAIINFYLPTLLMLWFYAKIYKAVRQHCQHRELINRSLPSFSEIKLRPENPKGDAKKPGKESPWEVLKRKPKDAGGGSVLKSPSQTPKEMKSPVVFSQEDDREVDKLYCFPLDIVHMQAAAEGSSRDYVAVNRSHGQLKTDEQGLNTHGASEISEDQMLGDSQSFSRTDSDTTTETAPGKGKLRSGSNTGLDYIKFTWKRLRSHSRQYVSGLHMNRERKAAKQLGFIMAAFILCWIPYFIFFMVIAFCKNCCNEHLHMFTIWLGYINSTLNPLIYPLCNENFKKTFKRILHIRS
Muscarinic M2, sequence (P08172 whole entry): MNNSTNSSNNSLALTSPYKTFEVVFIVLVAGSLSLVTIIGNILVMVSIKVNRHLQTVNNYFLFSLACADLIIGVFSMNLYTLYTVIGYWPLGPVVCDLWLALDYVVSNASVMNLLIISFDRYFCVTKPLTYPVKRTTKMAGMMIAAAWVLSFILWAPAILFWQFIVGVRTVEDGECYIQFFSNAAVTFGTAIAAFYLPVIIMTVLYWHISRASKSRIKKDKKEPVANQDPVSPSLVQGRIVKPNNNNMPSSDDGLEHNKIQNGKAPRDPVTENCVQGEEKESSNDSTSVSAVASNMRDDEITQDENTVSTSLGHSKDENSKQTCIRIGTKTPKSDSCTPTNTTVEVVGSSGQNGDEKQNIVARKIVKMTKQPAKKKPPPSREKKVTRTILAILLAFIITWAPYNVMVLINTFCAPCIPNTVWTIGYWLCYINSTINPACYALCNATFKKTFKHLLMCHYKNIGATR
Neurokinin NK3, sequence (P29371 whole entry): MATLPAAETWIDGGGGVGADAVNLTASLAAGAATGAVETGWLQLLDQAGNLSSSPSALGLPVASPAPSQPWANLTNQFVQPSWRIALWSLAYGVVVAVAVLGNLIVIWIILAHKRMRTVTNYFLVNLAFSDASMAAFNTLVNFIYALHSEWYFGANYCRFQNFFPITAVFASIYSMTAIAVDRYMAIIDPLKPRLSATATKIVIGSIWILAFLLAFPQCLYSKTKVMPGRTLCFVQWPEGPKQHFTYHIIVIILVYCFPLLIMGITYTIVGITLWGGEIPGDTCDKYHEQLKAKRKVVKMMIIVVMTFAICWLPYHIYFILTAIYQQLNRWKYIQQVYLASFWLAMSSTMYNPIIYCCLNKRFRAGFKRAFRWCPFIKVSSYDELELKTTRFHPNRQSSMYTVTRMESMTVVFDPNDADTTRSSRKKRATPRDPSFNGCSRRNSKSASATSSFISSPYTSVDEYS
T11 sequence (P29274 whole entry): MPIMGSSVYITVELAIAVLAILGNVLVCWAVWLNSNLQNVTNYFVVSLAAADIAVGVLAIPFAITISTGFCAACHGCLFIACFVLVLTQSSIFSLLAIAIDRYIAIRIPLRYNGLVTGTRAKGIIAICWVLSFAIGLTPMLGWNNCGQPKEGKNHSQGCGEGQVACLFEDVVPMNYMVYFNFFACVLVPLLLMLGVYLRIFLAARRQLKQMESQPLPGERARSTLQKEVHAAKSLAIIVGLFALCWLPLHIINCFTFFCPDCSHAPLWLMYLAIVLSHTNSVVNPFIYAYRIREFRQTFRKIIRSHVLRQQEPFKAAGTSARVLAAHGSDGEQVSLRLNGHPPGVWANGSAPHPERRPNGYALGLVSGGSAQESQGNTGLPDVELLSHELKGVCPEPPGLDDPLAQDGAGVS
Melanocortin MC4, sequence (P32245 whole entry): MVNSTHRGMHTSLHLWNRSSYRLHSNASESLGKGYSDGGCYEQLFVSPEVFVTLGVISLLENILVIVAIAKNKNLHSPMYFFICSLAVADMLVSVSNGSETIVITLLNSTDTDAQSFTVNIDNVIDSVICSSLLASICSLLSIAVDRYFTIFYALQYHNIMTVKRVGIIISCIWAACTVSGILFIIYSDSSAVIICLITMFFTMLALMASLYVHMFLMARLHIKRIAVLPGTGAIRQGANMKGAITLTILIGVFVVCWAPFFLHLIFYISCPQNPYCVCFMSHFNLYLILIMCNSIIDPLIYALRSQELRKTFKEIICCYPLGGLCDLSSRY
T1 sequence (P28564 whole entry): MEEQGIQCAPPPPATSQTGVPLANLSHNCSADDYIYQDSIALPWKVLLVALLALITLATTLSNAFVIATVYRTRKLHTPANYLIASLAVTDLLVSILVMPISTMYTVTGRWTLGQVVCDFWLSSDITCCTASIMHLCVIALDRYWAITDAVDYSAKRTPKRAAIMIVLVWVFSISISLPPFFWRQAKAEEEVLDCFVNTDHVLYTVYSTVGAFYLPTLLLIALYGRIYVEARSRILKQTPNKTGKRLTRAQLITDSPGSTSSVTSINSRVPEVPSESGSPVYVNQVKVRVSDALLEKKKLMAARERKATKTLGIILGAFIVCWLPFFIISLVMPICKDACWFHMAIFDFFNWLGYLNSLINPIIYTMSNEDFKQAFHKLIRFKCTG
T7 sequence (P25101 21-427): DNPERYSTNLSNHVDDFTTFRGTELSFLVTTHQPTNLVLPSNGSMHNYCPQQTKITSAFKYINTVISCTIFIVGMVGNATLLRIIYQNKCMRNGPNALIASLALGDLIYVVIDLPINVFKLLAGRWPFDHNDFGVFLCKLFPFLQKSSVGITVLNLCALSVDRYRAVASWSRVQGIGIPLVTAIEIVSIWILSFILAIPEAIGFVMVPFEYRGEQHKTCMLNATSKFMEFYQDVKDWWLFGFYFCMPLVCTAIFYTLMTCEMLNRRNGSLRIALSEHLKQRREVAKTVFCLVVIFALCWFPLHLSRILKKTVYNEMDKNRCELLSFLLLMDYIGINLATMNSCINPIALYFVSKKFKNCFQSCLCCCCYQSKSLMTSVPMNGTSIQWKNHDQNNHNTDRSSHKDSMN
T3 sequence (P30411 whole entry): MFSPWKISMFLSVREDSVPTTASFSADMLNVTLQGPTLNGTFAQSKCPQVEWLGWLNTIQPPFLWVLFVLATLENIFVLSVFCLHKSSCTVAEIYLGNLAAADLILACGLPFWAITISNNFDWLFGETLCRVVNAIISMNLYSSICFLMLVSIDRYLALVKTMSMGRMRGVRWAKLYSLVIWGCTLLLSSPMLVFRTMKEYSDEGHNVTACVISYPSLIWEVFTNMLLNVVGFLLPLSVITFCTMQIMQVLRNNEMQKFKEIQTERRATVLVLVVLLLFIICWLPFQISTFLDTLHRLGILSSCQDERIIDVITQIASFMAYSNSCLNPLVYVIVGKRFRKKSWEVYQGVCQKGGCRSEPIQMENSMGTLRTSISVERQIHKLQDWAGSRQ

## CC(=O)[C@H]1CC[C@H]2[C@@H]3CC=C4C[C@@H](O)CC[C@]4(C)[C@H]3CC[C@]12C [pregnenolone, reference compound]
Serotonin 5-HT1B
  inhibition at 10 µM: -28%
Neurotensin NTS1 (NT1)
  inhibition at 10 µM: -19%
[1]
  inhibition at 10 µM: > 80%
[1]; 10 μM
  Inhibition %: 87%
Muscarinic M2; M2, 10 μM, read-out: % Inhibition
  inhibition at 10 µM: -4%
GABA
  Inhibition %: 10%
Muscarinic M1; M1, 10 μM, read-out: % Inhibition
  inhibition at 10 µM: -14%
Bradykinin B2
  inhibition at 10 µM: -9%
Neurokinin NK3
  inhibition at 10 µM: 11%
Dopamine D5
  inhibition at 10 µM: -4%
Vasopressin V1a
  inhibition at 10 µM: 10%
Neuropetide Y Y2
  inhibition at 10 µM: -9%
Growth factors PDGF
  Inhibition %: −15%
Purinergic P2Y
  % Inhibition: −3%
Histamine H1
  inhibition at 10 µM: 0%
Muscarinic M3; M3, 10 μM, read-out: % Inhibition
  inhibition at 10 µM: 2%
[2]
  inhibition at 10 µM: -10%
[3]
  % Inhibition: 9%
Endothelin ETA
  inhibition at 10 µM: -3%
Na+ channels Na+-site 2
  % Inhibition: 23%
Serotonin 5-HT2B
  inhibition at 10 µM: -38%
Endothelin ETB
  inhibition at 10 µM: 4%
Melanocortin MC4
  inhibition at 10 µM: -15%
Prostanoid EP2
  inhibition at 10 µM: 24%
[4]; BZD (periph), 10 μM
  Inhibition %: 42%
[4]; BZD (periph), 10 μM, read-out: Inhibition %
  inhibition at 10 µM: > 40%
Adenosine A2A
  inhibition at 10 µM: -1%
Serotonin 5-HT5a
  inhibition at 10 µM: 11%
[5]; norepinephrine transporter, 10 μM, read-out: % Inhibition
  inhibition at 10 µM: -12%
Neurokinin NK2
  inhibition at 10 µM: -1%
Dopamine D1
  inhibition at 10 µM: -8%

## CC(=O)[C@@]1(C)CC[C@H]2[C@@H]3CC=C4C[C@@H](OCc5ccccc5)CC[C@]4(C)[C@H]3CC[C@@]21C [3Bn17MeP, 3β-benzyloxy, 17α-methyl-pregn-5-en-20-one]
Serotonin 5-HT1B; 10 μM
  % Inhibition: −15%
Neurotensin NTS1 (NT1)
  inhibition at 10 µM: -13%
[1]
  inhibition at 10 µM: 20%
Muscarinic M2
  inhibition at 10 µM: -17%
GABA
  Inhibition %: 10%
Muscarinic M1
  inhibition at 10 µM: -25%
Bradykinin B2
  inhibition at 10 µM: 0%
Neurokinin NK3
  inhibition at 10 µM: 7%
Dopamine D5; 10 μM
  % Inhibition: −6%
Vasopressin V1a
  inhibition at 10 µM: 0%
Neuropetide Y Y2
  inhibition at 10 µM: -6%
Growth factors PDGF
  Inhibition %: −13%
Purinergic P2Y
  % Inhibition: −2%
Histamine H1
  inhibition at 10 µM: 3%
Muscarinic M3
  inhibition at 10 µM: 16%
[2]
  inhibition at 10 µM: -17%
[3]
  % Inhibition: −3%
Endothelin ETA
  inhibition at 10 µM: 1%
Na+ channels Na+-site 2
  % Inhibition: −12%
Serotonin 5-HT2B; 10 μM
  % Inhibition: 16%
Endothelin ETB
  inhibition at 10 µM: -13%
Melanocortin MC4
  inhibition at 10 µM: -10%
Prostanoid EP2
  inhibition at 10 µM: 19%
[4]
  inhibition at 10 µM: 1%
Adenosine A2A
  inhibition at 10 µM: -6%
Serotonin 5-HT5a; 10 μM
  % Inhibition: 2%
[5]
  inhibition at 10 µM: -1%
Neurokinin NK2
  inhibition at 10 µM: -12%
Dopamine D1; 10 μM
  % Inhibition: −10%
